These results are taken from BindingDB's records for doi:10.1021/jm000443d (University of California At San Diego, 2001).

The assay has as its target Protein kinase C alpha type (Homo sapiens, UniProt P17252). Nature of the assay: Inhibition of Protein kinase C alpha.

As to `O=C(N[C@@H]1CSCCCC1OC(=O)c1ccc(C(=O)C2C(O)=CC=CC2C(=O)O)c(O)c1)c1ccc(O)cc1` (stereo not given in full), 3.3 nM corresponded to half-maximal inhibition (IC50). This counts as single-digit nanomolar.
The result for `O=C(N[C@@H]1CS(=O)(=O)CCCC1OC(=O)c1ccc(C(=O)C2C(O)=CC=CC2C(=O)O)c(O)c1)c1ccc(O)cc1` (stereo not given in full) reads 9.6 nM.
Then `O=C(N[C@@H]1CNCCC[C@H]1OC(=O)c1cc(O)c(C(=O)c2c(O)cccc2C(=O)O)c(O)c1)c1ccc(O)cc1` [Acyclic Balanol Analog (-)-1], with 0.074 nM; and `O=C(N[C@@H]1COCCCC1OC(=O)c1ccc(C(=O)C2C(O)=CC=CC2C(=O)O)c(O)c1)c1ccc(O)cc1` (stereo not given in full), with 6.7 nM; and `O=C(N[C@@H]1CCCCCC1OC(=O)c1ccc(C(=O)C2C(O)=CC=CC2C(=O)O)c(O)c1)c1ccc(O)cc1` (stereo not given in full), with 0.27 nM.
